Measurements: patent publication US9708314B2, “Heterocyclic amide compound” (NISSAN CHEMICAL INDUSTRIES, LTD., priority 2013, dated 2017)

Experiments:
Type in all cases: in vivo
Cyperus difformis = experiment: Test Example 3: herbicidal effect by application to foliage (Wagner pot, water depth 0.1-0.5 cm); details: Nineteenth Table; application to foliage; application herbicide amount 320 g/ha
Outline: (§1)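 Post-emergence foliar application at a stated g/ha rate to plants grown 14 days from seed in alluvial soil, greenhouse 25–30 °C. Visual score after 3 weeks: 0 (≤5% effect) through 5 (≥90%).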

[1] = tested on: Echinochloa crus-galli var. crus-galli; experiment: as above; details: Nineteenth Table; application to foliage; application herbicide amount 320 g/ha
Outline: as §1

Leptochloa chinensis = experiment: as above; details: Nineteenth Table; application to foliage; application herbicide amount 320 g/ha
Outline: as §1

[2] = tested on: directly sowed Oryza sativa; experiment: Test Example 3: effect on crop by application to foliage (Wagner pot, water depth 0.1-0.5 cm); details: Nineteenth Table; application to foliage; application herbicide amount 320 g/ha
Outline: as §1

Abutilon theophrasti = experiment: Test Example 4: herbicidal effect by application to foliage (diluvial soil, plastic box); details: application to foliage, application herbicide amount 320 g/ha
Outline: (§2)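 Seeds sown in sterilized diluvial soil, covered ~1.5 cm, grown 14 days in greenhouse at 25° C. to 30° C. Emulsion formulation diluted in water to set rate (g/ha) and sprayed onto stems and leaves. Effect scored visually 3 weeks later on 0–5 scale (5 = ≥90% herbicidal ratio, 0 = ≤5%).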

Alopecurus myosuroides = experiment: as above; details: application to foliage, application herbicide amount 320 g/ha
Outline: as §2

Amaranthus retroflexus = experiment: as above; details: application to foliage, application herbicide amount 320 g/ha
Outline: as §2

Apera spica-venti. = experiment: as above; details: application to foliage, application herbicide amount 320 g/ha
Outline: as §2

Avena fatua = experiment: as above; details: application to foliage, application herbicide amount 320 g/ha
Outline: as §2

Chenopodium album = experiment: as above; details: application to foliage, application herbicide amount 320 g/ha
Outline: as §2

Digitaria ciliaris = experiment: as above; details: application to foliage, application herbicide amount 320 g/ha
Outline: as §2

[3] = tested on: Echinochloa crus-galli var. crus-galli; experiment: as above; details: application to foliage, application herbicide amount 320 g/ha
Outline: as §2

Galium spurium = experiment: as above; details: application to foliage, application herbicide amount 320 g/ha
Outline: as §2

Lolium multiflorum Lam. = experiment: as above; details: application to foliage, application herbicide amount 320 g/ha
Outline: as §2

Setaria viridis = experiment: as above; details: application to foliage, application herbicide amount 320 g/ha
Outline: as §2

Stellaria media = experiment: as above; details: application to foliage, application herbicide amount 320 g/ha
Outline: as §2

Veronica persica = experiment: as above; details: application to foliage, application herbicide amount 320 g/ha
Outline: as §2

[4] = tested on: Beta vulgaris ssp. vulgaris; experiment: Test Example 4: effect on crop by application to foliage (diluvial soil, plastic box); details: application to foliage, application herbicide amount 320 g/ha
Outline: as §2

Brassica campestris L. = experiment: as above; details: application to foliage, application herbicide amount 320 g/ha
Outline: as §2

Glycine max = experiment: as above; details: application to foliage, application herbicide amount 320 g/ha
Outline: as §2

Triticum aestivum = experiment: as above; details: application to foliage, application herbicide amount 320 g/ha
Outline: as §2

Zea mays = experiment: as above; details: application to foliage, application herbicide amount 320 g/ha
Outline: as §2

[5] = tested on: directly sowed Oryza sativa; experiment: as above; details: application to foliage, application herbicide amount 320 g/ha
Outline: as §2

| SMILES | E (herbicidal effect grade) (Cyperus difformis) | H (herbicidal effect grade) [1] | D (herbicidal effect grade) (Leptochloa chinensis) | b (effect on crop grade) [2] | M: herbicidal effect on Abutilon theophrasti (Abutilon theophrasti) | J: herbicidal effect on Alopecurus myosuroides (Alopecurus myosuroides) | N: herbicidal effect on Amaranthus retroflexus (Amaranthus retroflexus) | L: herbicidal effect on Apera spica-venti. (Apera spica-venti.) | I: herbicidal effect on Avena fatua (Avena fatua) | O: herbicidal effect on Chenopodium album (Chenopodium album) | F: herbicidal effect on Digitaria ciliaris (Digitaria ciliaris) | H: herbicidal effect on Echinochloa crus-galli var. crus-galli [3] | Q: herbicidal effect on Galium spurium (Galium spurium) | K: herbicidal effect on Lolium multiflorum Lam. (Lolium multiflorum Lam.) | G: herbicidal effect on Setaria viridis (Setaria viridis) | P: herbicidal effect on Stellaria media (Stellaria media) | R: herbicidal effect on Veronica persica (Veronica persica) | f: effect on crop, Beta vulgaris ssp. vulgaris [4] | g: effect on crop, Brassica campestris L. (Brassica campestris L.) | d: effect on crop, Glycine max (Glycine max) | other results |
| --- | --- | --- | --- | --- | --- | --- | --- | --- | --- | --- | --- | --- | --- | --- | --- | --- | --- | --- | --- | --- | --- |
| CSc1nnc2c(C(=O)Nc3nnnn3C)ccc(C(F)(F)F)n12 [2-013] | 5 (Herbicidal ratio of 90% or more (almost completely withered)) | 5 (Herbicidal ratio of 90% or more (almost completely withered)) | 5 (Herbicidal ratio of 90% or more (almost completely withered)) | 5 (Herbicidal ratio of 90% or more (almost completely withered)) | 5 (Herbicidal ratio of 90% or more (almost completely withered)) | 3 (Herbicidal ratio of 40% or more and less than 70%) | 5 (Herbicidal ratio of 90% or more (almost completely withered)) | 4 (Herbicidal ratio of 70% or more and less than 90%) | 4 (Herbicidal ratio of 70% or more and less than 90%) | 5 (Herbicidal ratio of 90% or more (almost completely withered)) | 5 (Herbicidal ratio of 90% or more (almost completely withered)) | 5 (Herbicidal ratio of 90% or more (almost completely withered)) | 4 (Herbicidal ratio of 70% or more and less than 90%) | 3 (Herbicidal ratio of 40% or more and less than 70%) | 5 (Herbicidal ratio of 90% or more (almost completely withered)) | 5 (Herbicidal ratio of 90% or more (almost completely withered)) | 4 (Herbicidal ratio of 70% or more and less than 90%) | 5 (Herbicidal ratio of 90% or more (almost completely withered)) | 4 (Herbicidal ratio of 70% or more and less than 90%) | 4 (Herbicidal ratio of 70% or more and less than 90%) | e: effect on crop, Triticum aestivum (Triticum aestivum): 4 (Herbicidal ratio of 70% or more and less than 90%); c: effect on crop, Zea mays (Zea mays): 3 (Herbicidal ratio of 40% or more and less than 70%); b: effect on crop, directly sowed Oryza sativa [5]: 5 (Herbicidal ratio of 90% or more (almost completely withered)) |
| COCCOCc1nnc2c(C(=O)Nc3nnnn3C)ccc(C(F)(F)F)n12 [2-014] | 5 (Herbicidal ratio of 90% or more (almost completely withered)) | 5 (Herbicidal ratio of 90% or more (almost completely withered)) | 5 (Herbicidal ratio of 90% or more (almost completely withered)) | 5 (Herbicidal ratio of 90% or more (almost completely withered)) | 5 (Herbicidal ratio of 90% or more (almost completely withered)) | 4 (Herbicidal ratio of 70% or more and less than 90%) | 5 (Herbicidal ratio of 90% or more (almost completely withered)) | 4 (Herbicidal ratio of 70% or more and less than 90%) | 4 (Herbicidal ratio of 70% or more and less than 90%) | 5 (Herbicidal ratio of 90% or more (almost completely withered)) | 5 (Herbicidal ratio of 90% or more (almost completely withered)) | 5 (Herbicidal ratio of 90% or more (almost completely withered)) | 4 (Herbicidal ratio of 70% or more and less than 90%) | 4 (Herbicidal ratio of 70% or more and less than 90%) | 5 (Herbicidal ratio of 90% or more (almost completely withered)) | 5 (Herbicidal ratio of 90% or more (almost completely withered)) | 5 (Herbicidal ratio of 90% or more (almost completely withered)) | 5 (Herbicidal ratio of 90% or more (almost completely withered)) | 4 (Herbicidal ratio of 70% or more and less than 90%) | 4 (Herbicidal ratio of 70% or more and less than 90%) | e: effect on crop, Triticum aestivum (Triticum aestivum): 4 (Herbicidal ratio of 70% or more and less than 90%); c: effect on crop, Zea mays (Zea mays): 3 (Herbicidal ratio of 40% or more and less than 70%); b: effect on crop, directly sowed Oryza sativa [5]: 5 (Herbicidal ratio of 90% or more (almost completely withered)) |
| Cn1nnnc1NC(=O)c1ccc(C(F)(F)F)n2c(COCC(F)(F)F)nnc12 [2-015] | 5 (Herbicidal ratio of 90% or more (almost completely withered)) | 5 (Herbicidal ratio of 90% or more (almost completely withered)) | 5 (Herbicidal ratio of 90% or more (almost completely withered)) | 4 (Herbicidal ratio of 70% or more and less than 90%) | 5 (Herbicidal ratio of 90% or more (almost completely withered)) | 2 (Herbicidal ratio of 20% or more and less than 40%) | 5 (Herbicidal ratio of 90% or more (almost completely withered)) | 2 (Herbicidal ratio of 20% or more and less than 40%) | 2 (Herbicidal ratio of 20% or more and less than 40%) | 5 (Herbicidal ratio of 90% or more (almost completely withered)) | 5 (Herbicidal ratio of 90% or more (almost completely withered)) | 5 (Herbicidal ratio of 90% or more (almost completely withered)) | 3 (Herbicidal ratio of 40% or more and less than 70%) | 2 (Herbicidal ratio of 20% or more and less than 40%) | 4 (Herbicidal ratio of 70% or more and less than 90%) | 4 (Herbicidal ratio of 70% or more and less than 90%) | 3 (Herbicidal ratio of 40% or more and less than 70%) | 4 (Herbicidal ratio of 70% or more and less than 90%) | 3 (Herbicidal ratio of 40% or more and less than 70%) | 2 (Herbicidal ratio of 20% or more and less than 40%) | e: effect on crop, Triticum aestivum (Triticum aestivum): 2 (Herbicidal ratio of 20% or more and less than 40%); c: effect on crop, Zea mays (Zea mays): 2 (Herbicidal ratio of 20% or more and less than 40%); b: effect on crop, directly sowed Oryza sativa [5]: 4 (Herbicidal ratio of 70% or more and less than 90%) |
| CCC(C)c1nnc2c(C(=O)Nc3nnnn3C)ccc(C(F)(F)F)n12 (centres unmarked) [2-016] | 5 (Herbicidal ratio of 90% or more (almost completely withered)) | 5 (Herbicidal ratio of 90% or more (almost completely withered)) | 5 (Herbicidal ratio of 90% or more (almost completely withered)) | 5 (Herbicidal ratio of 90% or more (almost completely withered)) | 5 (Herbicidal ratio of 90% or more (almost completely withered)) | 4 (Herbicidal ratio of 70% or more and less than 90%) | 5 (Herbicidal ratio of 90% or more (almost completely withered)) | 4 (Herbicidal ratio of 70% or more and less than 90%) | 4 (Herbicidal ratio of 70% or more and less than 90%) | 5 (Herbicidal ratio of 90% or more (almost completely withered)) | 5 (Herbicidal ratio of 90% or more (almost completely withered)) | 5 (Herbicidal ratio of 90% or more (almost completely withered)) | 3 (Herbicidal ratio of 40% or more and less than 70%) | 4 (Herbicidal ratio of 70% or more and less than 90%) | 5 (Herbicidal ratio of 90% or more (almost completely withered)) | 5 (Herbicidal ratio of 90% or more (almost completely withered)) | 5 (Herbicidal ratio of 90% or more (almost completely withered)) | 5 (Herbicidal ratio of 90% or more (almost completely withered)) | 4 (Herbicidal ratio of 70% or more and less than 90%) | 4 (Herbicidal ratio of 70% or more and less than 90%) | e: effect on crop, Triticum aestivum (Triticum aestivum): 4 (Herbicidal ratio of 70% or more and less than 90%); c: effect on crop, Zea mays (Zea mays): 1 (Herbicidal ratio of 5% or more and less than 20%); b: effect on crop, directly sowed Oryza sativa [5]: 5 (Herbicidal ratio of 90% or more (almost completely withered)) |
